Values quoted from earlier work as cited in patent publication US20090181849A1, “Agricultural chemical containing top dressing composition and process for use thereof” (priority 2007, published 2009).

Experiments:
curvularia fungus = settings: Kentucky bluegrass plants growing in sand; sprayed and fertilized in separate applications; not on bent grass or Bermuda grass plants
S. homoeocarpa = settings: bent grass, blend of Cato:Crenshaw (50:50); disease pressure high

O=[N+]([O-])NC1=NCCN1Cc1ccc(Cl)nc1 [imidacloprid]
control of curvularia fungus (curvularia fungus): successful control

CSC(=O)c1cccc2nnsc12 [ASM, acibenzolar-5-methyl]
reduction of number of S. homoeocarpa infection centers (S. homoeocarpa): 38%
